{"source": "patent US7629130B2", "about": "(priority 2005, dated 2009)", "key": {"[1]": {"test_system": "Dictyostelium", "type": "cell-based, Dictyostelium discoideum"}, "[2]": {"test_system": "Legionella-containing vacuoles in Dictyostelium", "type": "cell-based, Dictyostelium discoideum", "conditions": "20 μM LY; 1 h infection; p<10^−9"}, "[3]": {"test_system": "Dictyostelium"}, "[4]": {"test_system": "L. pneumophila"}, "[5]": {"test_system": "Legionella-containing vacuoles in calnexin-GFP-labeled Dictyostelium", "type": "cell-based, Dictyostelium discoideum"}, "[6]": {"test_system": "L. pneumophila within Dictyostelium", "type": "cell-based, Legionella pneumophila", "conditions": "within 6-8 days; 10 μM LY (FIG. 2C); MOI 1"}, "[7]": {"conditions": "latrunculin B 1-50 μM, cytochalasin A 1-50 μM, cytochalasin D up to 50 μM, 1 h prior infection"}}, "note": "Read-outs that look alike come from different tables or passages of the source."}
{"molecule": "C=C1[C@@H](C)[C@H]2[C@H](Cc3ccccc3)NC(=O)[C@]23[C@H](OC(C)=O)/C=C/[C@@](C)(O)C(=O)[C@@H](C)C/C=C/[C@H]3[C@@H]1O", "note": "[cytochalasin D]", "values": [{"measurement": "inhibition of phagocytosis (uptake) of L. pneumophila", "setting": "[1]; [7]", "value": "did not prevent uptake"}]}
{"molecule": "C/C1=C/C(=O)O[C@@H]2C[C@@H](CC[C@H](C)/C=C\\CC1)O[C@@](O)([C@@H]1CSC(=O)N1)C2", "note": "[latrunculin B]", "values": [{"measurement": "Icm/Dot-dependent phagocytosis", "setting": "[1]", "value": "blocked"}, {"measurement": "inhibition of phagocytosis (uptake) of L. pneumophila", "setting": "[1]", "value": "blocked phagocytosis in a dose-dependent manner"}, {"measurement": "phagocytosis (FIG. 1)", "setting": "[1]", "value": "blocked"}]}
{"molecule": "O=c1cc(N2CCOCC2)oc2c(-c3ccccc3)cccc12", "note": "[LY294002]", "values": [{"measurement": "factor more SidC localized to LCV membranes compared to untreated wild-type Dictyostelium", "setting": "[2]", "value": "~1.5"}, {"measurement": "viability of Dictyostelium (PFU)", "setting": "[3]", "value": "did not affect viability"}, {"measurement": "viability of Dictyostelium Ax3 in MB medium", "setting": "[3]", "value": "as viable as untreated"}, {"measurement": "viability of Dictyostelium at later time points (PFU on K. pneumoniae lawns)", "setting": "[3]", "value": "reduced viability"}, {"measurement": "change in phagocytosis of wild-type L. pneumophila", "setting": "[1]; wild-type Dictyostelium treated with PI3K inhibitor (FIG. 2A: 5 μM wortmannin)", "value": "−33", "unit": "%"}, {"measurement": "viability of L. pneumophila (CFU)", "setting": "[4]; wortmannin 0.1-10 μM, LY294002 5-25 μM, HL5 medium", "value": "did not affect viability"}, {"measurement": "portion of spacious LCVs", "setting": "[5]; 15 min post infection, 20 μM LY-treated wild-type Dictyostelium (untreated 25%)", "value": "less than 5%"}, {"measurement": "portion of spacious LCVs", "setting": "[5]; within 2 h, 20 μM LY-treated wild-type Dictyostelium (untreated 40%)", "value": 20, "unit": "%"}, {"measurement": "factor more wild-type L. pneumophila released compared to wild-type Dictyostelium", "setting": "[6]", "value": "~100"}]}
{"molecule": "COC[C@H]1OC(=O)c2coc3c2[C@@]1(C)C1=C(C3=O)[C@@H]2CCC(=O)[C@@]2(C)C[C@H]1OC(C)=O", "note": "[wortmannin]", "values": [{"measurement": "viability of Dictyostelium (PFU)", "setting": "[3]", "value": "did not affect viability"}, {"measurement": "viability of Dictyostelium Ax3 in MB medium", "setting": "[3]", "value": "as viable as untreated"}, {"measurement": "change in phagocytosis of wild-type L. pneumophila", "setting": "[1]", "value": "−19", "unit": "%"}, {"measurement": "viability of L. pneumophila (CFU)", "setting": "[4]", "value": "did not affect viability"}]}
{"molecule": "C=C1[C@@H](C)[C@H]2[C@H](Cc3ccccc3)NC(=O)[C@]23OC(=O)/C=C/C(=O)CCC[C@@H](C)C/C=C/[C@H]3[C@@H]1O", "note": "[cytochalasin A]", "values": [{"measurement": "Icm/Dot-dependent phagocytosis", "setting": "[1]", "value": "blocked"}, {"measurement": "inhibition of phagocytosis (uptake) of L. pneumophila", "setting": "[1]; [7]", "value": "blocked phagocytosis in a dose-dependent manner"}]}
